Earlier results as cited in patent US20260232602A1, “DRUG DELIVERY SYSTEMS AND METHODS COMPRISING POLYSIALIC ACID AND/OR OTHER POLYMERS” (Universidade de Santiago de Compostela, priority 2017, published 2026).

Details: stated with the drug's Mw and supplier

Row | SMILES | Log P
1 | C/C(=C\c1csc(C)n1)[C@@H]1C[C@@H]2O[C@]2(C)CCC[C@H](C)[C@H](O)[C@@H](C)C(=O)C(C)(C)[C@@H](O)CC(=O)O1 [patupilone] | 3.7
2 | CC(=O)O[C@@]12CO[C@@H]1C[C@H](O)[C@@]1(C)C(=O)[C@H](O)C3=C(C)[C@@H](OC(=O)[C@H](O)[C@@H](NC(=O)OC(C)(C)C)c4ccccc4)C[C@@](O)([C@@H](OC(=O)c4ccccc4)[C@H]21)C3(C)C [docetaxel] | 2.6
